The source of these data is patent publication US4192871A, “Chemical compounds” (Glaxo Laboratories Limited, priority 1976, dated 1980).

Data set [1] in a line: dissolution of the 11β-aminoester salts in aqueous acid (Table 5 and Examples 101, 225-229). In kind it is physicochemical. As for the experimental part: (§1) A solution of the above free base (492 mg; 1 mmole) in ethanol (10 ml) was treated with a solution (10 ml) of M/10 citric acid in ethanol water (9:1) and the mixture evaporated in vacuo at low temperature to afford a froth.
(§2) Table 5 summarises the properties and preparation of salts of the invention by one of the following methods:
(§3) A. The 11β-aminoester (1 part) was added to a solution of the acid (1 molar part) in water and the mixture stirred or shaken until a clear solution was obtained. The solution was made up with water to the weight indicated, filtered through a membrane and the pH determined.
(§4) B. The 11β-aminoester (1 part) was added to a solution of the acid (1 molar part) in water and the mixture stirred or shaken. As free base remained undissolved, further acid was added and the mixture agitated again. The solution was made up with water to the weight indicated and any material which then remained undissolved was collected in a weighed funnel and the weight of free base dissolved calculated and the pH of the solution measured.
(§5) C. A mixture of the 11β-aminoester (1 part), a 0.1 M solution of the acid (1 molar part) and ethanol was evaporated in vacuo and dried to constant weight. The residue was dissolved in a little water and any material which then remained undissolved collected in a weighed funnel and the weight of free base dissolved calculated. The solution was made up with water to the weight indicated and its pH measured.
(§6) D. The 11β-aminoester (1 part) was added to a solution of the acid (1 molar part) in water and the mixture stirred or shaken. The solution was made up with water to the weight indicated. The material remaining undissolved was collected in a weighed funnel and the weight of free base dissolved calculated and the pH of the solution measured.
(§7) E. As in method C except that further acid was added to the residue after addition of the small amount of water.
The solid citric acid used was as its monohydrate.
(§8) Sodium iodide (0.250 g) and diethylamine (0.5 ml) were added to a solution of 11β-chloroacetoxy-2β-ethoxy-3α-hydroxy-D-homo-5α-pregnan-20-one (0.250 g) in acetone (10 ml) and the mixture was left at room temperature for 3 days during which time a white solid precipated. Water was added and the yellow solution was concentrated in vacuo whereupon crystallisation occurred. The needles were filtered off and washed well with acetone/water yielding the title compound (0.201 g), m.p. 160°-73°, [α]D +60.8°. The above base (0.101 g) was stirred with citric acid monohydrate (0.042 g) in water (9.5 ml) for 21 hours. The solution was made up to 10.1 g by weight. The solid remaining out of solution was filtered off, dried and weighed. The solution was passed through a millipore filter giving an aqueous solution of the title compound, concentration 9.75 mg/ml, pH 3.66.
The above base (0.096 g) was stirred in a solution of citric acid monohydrate (0.038 g) in water (8.5 ml) for 20 hours. A large proportion of the steroid remained out of solution. More citric acid (0.038 g) was added and the mixture stirred for a further 6 hours. The solution was made up to 9.6 g by weight and the solid remaining out of solution was filtered off, dried and weighed. The solution was passed through a millipore filter giving an aqueous solution of the title compound, concentration 9.5 mg/ml, pH 2.85.
To a solution of citric acid monohydrate (52.5 mg) in water (2 ml) was added the above free base (115 mg). More water (8 ml) was added and the mixture was stirred for 72 hrs. A small amount of steroid remained out of solution and more citric acid (52.5 mg) was added. Within 5 mins. a clear solution was obtained which was made up to 11.5 g with water and filtered through a millipore filter yielding an aqueous solution of the title citrate, concentration 10 mg/ml, pH 3.0.
The above free base (112 mg) was added to a solution of citric acid monohydrate (52.5 mg) in water (2 ml). More water (8 ml) was added and the mixture was swirled from time to time. […]

A short description of another data set: pH of the salt solutions. In kind it is physicochemical. As for the experimental part: as §1, §2, §3, §4, §5, §6, §7
11β-N,N-Diethylaminoacetoxy-2β-ethoxy-3α-hydroxy-5α-pregnan-20-one (1.45 g) was agitated with citric acid monohydrate (621 mg) in 0.9% w/v sodium chloride solution (steriflex^(R)) (130 ml.) at 20° for 16.5 hours. The resulting solution was stirred at 21° and N/5 sodium hydroxide solution in steriflex^(R) (10.5 ml) was added dropwise during 30 minutes, raising the pH from 3.63 to 4.52. The solution was diluted to 162.5 g so that the concentration of steroid was 9 mg/ml. The solution of the citrate was filtered through a membrane and finally filtered into 8 sterile ampoules.
11β-(N-Butyl-N-ethylaminoacetoxy)-3α-hydroxy-5α-pregnan-20-one (1.80 g) was agitated with citric acid monohydrate (793 mg) in 0.9% w/v sodium chloride solution (steriflex^(R)) (160 ml) at 20° for 19.5 hours. The resulting solution was slightly cloudy. This solution was stirred at 21° and N/5 sodium hydroxide solution in steriflex^(R) (5.8 ml) was added dropwise during 15 minutes, raising the pH from 3.62 to 4.00. The solution was diluted to 201.2 g so that the concentration of steroid was 9 mg/ml. The cloudiness was removed by filtration through a membrane and the clear solution of the citrate was filtered into 8 sterile ampoules.
as §8, with “3.66. […]” for “3.66.”

The mark [2] stands for this setting: method A: clear solution, 1 molar part acid, made up with water to WT. of solution 10 g, except Ex. 121 and 150: 12, 123: 12.3, 124: 7.5, 129: 10.3, 135 and 139: 8.95, 164: 10.35, 170: 10.4, 181: 10.04, 187: 9.5, 210: 10.2, 221: 15 g.
[3] abbreviates: aqueous solution of the salt, Table 5.
[4] abbreviates: method D: 1 molar part acid, undissolved material weighed, WT. of solution 10 g, except Ex. 136: 8.95, 140: 9.52, 165 and 167: 10.1, 190 and 198: 9.8, 191: 8.9, 194: 6.6, 204: 10.09, 219: 10.6 g.
[5] abbreviates: method C: ethanol evaporated, residue in water, undissolved material weighed, WT. of solution Ex. 118: 10, 120: 10.4, 148: 9.54, 152: 5.6, 154: 9.1, 155: 8.77, 156: 9.06, 157: 9.5, 158: 9.38, 159: 9.17, 179: 9.65, 180: 11.7, 182: 4.9, 202: 12.05, 213: 12, 214: 11.5, 215: 11.1, 216: 11.6, 217: 12.1 g.
[6] abbreviates: method B: further acid added, undissolved material weighed, WT. of solution 10 g, except Ex. 130 and 141: 9.2, 142: 9.23, 143, 144, 189 and 199: 9.8, 149: 10.6, 153: 7.9, 162 and 188: 9.5, 163: 68, 166: 10.4, 168: 10.7, 169: 10.9, 183: 8.05, 184 and 201: 9.83, 185: 7.1, 186: 9.3, 192: 10.07, 193: 6.4, 195: 6.8, 196: 7, 197: 7.2, 200: 10.1, 206: 15 g.

As for `CCN(CC)CC(=O)O[C@H]1C[C@]2(C)[C@@H](C(C)=O)CC[C@H]2[C@@H]2C[C@@H](C)[C@H]3C[C@H](O)CC[C@]3(C)[C@H]21` [Example 171], the Dissolved aminoester in data set [1] (setting [2]) is recorded as 100 mg. In the data set “pH of the salt solutions” (setting [3]), the pH is 3.4.

With `CC(=O)[C@H]1CC[C@H]2[C@@H]3CC[C@H]4C[C@H](O)CC[C@]4(C)[C@H]3[C@@H](OC(=O)CN(C)C3CCCCC3)C[C@]12C` [Example 127], in data set [1] (setting [2]), the Dissolved aminoester is on record as 100 mg. Also, in the data set “pH of the salt solutions” (setting [3]), the pH amounted to 3.62.

`C=CCN(C)CC(=O)O[C@H]1C[C@]2(C)[C@@H](C(C)=O)CC[C@H]2[C@@H]2CC[C@H]3C[C@H](O)CC[C@]3(C)[C@H]21` [Example 191]: the Dissolved aminoester in data set [1] (setting [4]) was 86.1 mg. The pH in the data set “pH of the salt solutions” (setting [3]) turned out to be 3.20.

Regarding `CCCN(CCC)CC(=O)O[C@H]1C[C@]2(C)[C@@H](C(C)=O)CC[C@H]2[C@@H]2CC[C@H]3C[C@H](O)CC[C@]3(C)[C@H]21` [Example 216], the Dissolved aminoester in data set [1] (setting [5]) was found to be 116 mg. Besides, the pH in “pH of the salt solutions” (setting [3]) is listed as 3.58.

`CCOC1CC2(C)C(CCC3C4CCC(C(C)=O)C4(C)CC(OC(=O)CNC(C)CC(C)C)C32)CC1O` (centres unmarked) [Example 166]: the Dissolved aminoester in data set [1] (setting [6]) was found to be 104 mg. The pH in the data set “pH of the salt solutions” (setting [3]) was determined as 3.28.

In the case of `CCCCN(CC)CC(=O)OC1CC2(C)C(C(C)=O)CCC2C2CCC3CC(O)C(C)CC3(C)C12` (centres unmarked) [Example 174], the Dissolved aminoester in data set [1] (setting [6]) is reported as 100 mg. In addition, the pH in the data set “pH of the salt solutions” (setting [3]) came out at 2.90.

Regarding `CC(=O)[C@H]1CC[C@H]2[C@@H]3CC[C@H]4C[C@H](O)CC[C@]4(C)[C@H]3[C@@H](OC(=O)CNC3CC3)C[C@]12C` [Example 145], in data set [1] (setting [4]), the Dissolved aminoester was found to be 93 mg. In the data set “pH of the salt solutions” (setting [3]), the pH was 2.93.

On to `CCCCOC1CC2(C)C(CCC3C4CCC(C(C)=O)C4(C)CC(OC(=O)CN(C)CCCC)C32)CC1O` (centres unmarked) [Example 168], for which, in data set [1] (setting [6]), the Dissolved aminoester was determined as 70.5 mg. Moreover, the pH in the data set “pH of the salt solutions” (setting [3]) is recorded as 2.4.

Turning to `CCCN(CCC)CC(=O)O[C@H]1C[C@]2(C)[C@@H](C(C)=O)CC[C@H]2[C@@H]2CC[C@H]3C[C@H](O)[C@@H](OCC)C[C@]3(C)[C@H]21` [Example 120], the Dissolved aminoester in data set [1] (setting [5]) amounted to 87 mg. Further, the pH in “pH of the salt solutions” (setting [3]) is 3.5.

For the molecule `CCC(C)N(C)CC(=O)O[C@H]1C[C@]2(C)[C@@H](C(C)=O)CC[C@H]2[C@@H]2CC[C@H]3C[C@H](O)CC[C@]3(C)[C@H]21` (some centres unmarked) [Example 184], the Dissolved aminoester in data set [1] (setting [6]) turned out to be 94.5 mg. In addition, the pH in the data set “pH of the salt solutions” (setting [3]) was determined as 3.0.

On to `CCCCCN(C)CC(=O)O[C@H]1C[C@]2(C)[C@@H](C(C)=O)CC[C@H]2[C@@H]2CC[C@H]3C[C@H](O)CC[C@]3(C)[C@H]21` [Example 185], for which the Dissolved aminoester in data set [1] (setting [6]) is 65.3 mg. Also, the pH in the data set “pH of the salt solutions” (setting [3]) is 2.86.

In the case of `CCCCN(CC)CC(=O)O[C@H]1C[C@]2(C)[C@@H](C(C)=O)CC[C@H]2[C@@H]2CC[C@H]3C[C@H](O)CC[C@]3(C)[C@H]21.O=C(O)CC(O)(CC(=O)O)C(=O)O` [Example 222, 11β-(N-Butyl-N-ethylaminoacetoxy)-3α-hydroxy-5α-pregnan-20-one, citrate salt], the Dissolved aminoester in data set [1] (method A, 0.9% w/v saline in place of water, WT. of solution Ex. 122: 37.5 g, 222: 50 g) is reported as 500 mg. For the same molecule, the pH in the data set “pH of the salt solutions” (solution in 0.9% w/v saline, pH adjusted with sodium hydroxide solution, citrate salt) came out at 3.97; in the data set “pH of the salt solutions” (solution in 0.9% w/v saline, pH adjusted with sodium hydroxide solution, listed as Example 224, citrate salt), 4.00; in “pH of the salt solutions” (solution of the salt in saline, before any adjustment), 3.62.

Consider `CCN(CC)CC(=O)O[C@H]1C[C@]2(C)[C@@H](C(C)=O)CC[C@H]2[C@@H]2CC[C@H]3C[C@H](O)C=C[C@]3(C)[C@H]21` [Example 211], for which the Dissolved aminoester in data set [1] (setting [4]) came to 94 mg. Moreover, the pH in the data set “pH of the salt solutions” (setting [3]) stood at 3.2.

In the case of `CCCN(CCC)CC(=O)O[C@H]1C[C@]2(C)[C@@H](C#N)CC[C@H]2[C@@H]2CC[C@H]3C[C@H](O)CC[C@]3(C)[C@H]21` [Example 206], the Dissolved aminoester in data set [1] (setting [6]) came out at 84 mg. Besides, the pH in “pH of the salt solutions” (setting [3]) was 2.7.

For the molecule `CCCCN(C)CC(=O)O[C@H]1C[C@]2(C)[C@@H](C#N)CC[C@H]2[C@@H]2CC[C@H]3C[C@H](O)CC[C@]3(C)[C@H]21` [Example 205], the Dissolved aminoester in data set [1] (setting [4]) came out at 97 mg. For the same molecule, the pH in “pH of the salt solutions” (setting [3]) amounted to 3.4.

With `CC(=O)C1C(C)CC2C3CCC4CC(O)CCC4(C)C3C(OC(=O)CN3CCC(C)CC3)CC21C` (centres unmarked) [Example 178], the Dissolved aminoester in data set [1] (setting [2]) is given as 100 mg. Besides, the pH in the data set “pH of the salt solutions” (setting [3]) is reported as 3.6.

Regarding `CC(=O)[C@H]1CC[C@H]2[C@@H]3CC[C@H]4C[C@H](O)CC[C@]4(C)[C@H]3[C@@H](OC(=O)CNC(C)CCC(C)C)C[C@]12C` (some centres unmarked) [Example 143], the Dissolved aminoester in data set [1] (setting [6]) came out at 86 mg. Moreover, the pH in the data set “pH of the salt solutions” (setting [3]) is recorded as 2.85.

For the molecule `CC(=O)[C@H]1CC[C@H]2[C@@H]3CC[C@H]4C[C@H](O)CC[C@]4(C)[C@H]3[C@@H](OC(=O)CN(C)Cc3ccccc3)C[C@]12C` [Example 119], the Dissolved aminoester in data set [1] (setting [6]) was 73 mg. Besides, the pH in “pH of the salt solutions” (setting [3]) stood at 2.7.
